Legend:
Assay type in all cases: in vivo
Details in all cases: treatment dosage 320 g/ha
barnyard grass [1] = experiment: Test Example 1: weedkilling efficacy, preemergent weed treatment in the submerged state; A: barnyard grass
Outline: (§1)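 Visual scores against set criteria were taken 3 weeks after treatment. Compounds, as diluted emulsions at specified g/ha, went onto the water surface of 4 cm-flooded alluvial soil pots on the day weeds were sown and 2.5-leaf rice was transplanted; greenhouse held 25–30 °C.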

bulrush [2] = experiment: Test Example 1: weedkilling efficacy, preemergent weed treatment in the submerged state; B: bulrush
Outline: as §1

oval-leafed pondweed [3] = experiment: Test Example 1: weedkilling efficacy, preemergent weed treatment in the submerged state; C: oval-leafed pondweed
Outline: as §1

transplanted rice = experiment: Test Example 1: preemergent weed treatment in the submerged state, effect on crop; a: transplanted rice
Outline: as §1

barnyard grass [4] = experiment: Test Example 2: weedkilling efficacy, growth period weed treatment in the submerged state; A: barnyard grass
Outline: (§2)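 Barnyard grass, bulrush and oval-leafed pondweed sown in alluvial soil under 4 cm flooding, greenhouse 25 to 30° C. At 1-2 leaf stage, water-diluted emulsion applied to the water surface at stated g/ha dosages; effects scored 3 weeks later.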

bulrush [5] = experiment: Test Example 2: weedkilling efficacy, growth period weed treatment in the submerged state; B: bulrush
Outline: as §2

oval-leafed pondweed [6] = experiment: Test Example 2: weedkilling efficacy, growth period weed treatment in the submerged state; C: oval-leafed pondweed
Outline: as §2

crabgrass [7] = experiment: Test Example 3: weedkilling efficacy through soil treatment; D: crabgrass
Outline: (§3)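 Crop and weed responses were judged three weeks after a uniform surface spray of the water-diluted emulsion at the given g/ha rate. Seeds sat beneath about 1.5 cm of sterilized diluvial soil, and boxes stood in a greenhouse at 25 to 30° C.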

green foxtail [8] = experiment: Test Example 3: weedkilling efficacy through soil treatment; E: green foxtail
Outline: as §3

barnyard grass [9] = experiment: Test Example 3: weedkilling efficacy through soil treatment; F: barnyard grass
Outline: as §3

wild oat [10] = experiment: Test Example 3: weedkilling efficacy through soil treatment; G: wild oat
Outline: as §3

black-grass [11] = experiment: Test Example 3: weedkilling efficacy through soil treatment; H: black-grass
Outline: as §3

Italian ryegrass [12] = experiment: Test Example 3: weedkilling efficacy through soil treatment; I: Italian ryegrass
Outline: as §3

common wind-grass [13] = experiment: Test Example 3: weedkilling efficacy through soil treatment; J: common wind-grass
Outline: as §3

Indian mallow [14] = experiment: Test Example 3: weedkilling efficacy through soil treatment; K: Indian mallow
Outline: as §3

redroot pigweed [15] = experiment: Test Example 3: weedkilling efficacy through soil treatment; L: redroot pigweed
Outline: as §3

fig-leafed goosefoot [16] = experiment: Test Example 3: weedkilling efficacy through soil treatment; M: fig-leafed goosefoot
Outline: as §3

chickweed [17] = experiment: Test Example 3: weedkilling efficacy through soil treatment; N: chickweed
Outline: as §3

catchweed [18] = experiment: Test Example 3: weedkilling efficacy through soil treatment; O: catchweed
Outline: as §3

birds-eye speedwell [19] = experiment: Test Example 3: weedkilling efficacy through soil treatment; p: birds-eye speedwell
Outline: as §3

directly sown rice [20] = experiment: Test Example 3: soil treatment, effect on crop; b: directly sown rice
Outline: as §3

corn [21] = experiment: Test Example 3: soil treatment, effect on crop; c: corn
Outline: as §3

soybean [22] = experiment: Test Example 3: soil treatment, effect on crop; d: soybean
Outline: as §3

wheat [23] = experiment: Test Example 3: soil treatment, effect on crop; e: wheat
Outline: as §3

beet [24] = experiment: Test Example 3: soil treatment, effect on crop; f: beet
Outline: as §3

rapeseed [25] = experiment: Test Example 3: soil treatment, effect on crop; g: rapeseed
Outline: as §3

crabgrass [26] = experiment: Test Example 4: weedkilling efficacy by foliar treatment; D: crabgrass
Outline: (§4)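 Seeds are spot-sown into sterilized diluvial soil and covered with about 1.5 cm of soil. After 14 days' greenhouse growth at 25 to 30° C, plants are sprayed on stems and leaves with diluted emulsion at the stated g/ha rate, then scored at 3 weeks.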

green foxtail [27] = experiment: Test Example 4: weedkilling efficacy by foliar treatment; E: green foxtail
Outline: as §4

barnyard grass [28] = experiment: Test Example 4: weedkilling efficacy by foliar treatment; F: barnyard grass
Outline: as §4

wild oat [29] = experiment: Test Example 4: weedkilling efficacy by foliar treatment; G: wild oat
Outline: as §4

black-grass [30] = experiment: Test Example 4: weedkilling efficacy by foliar treatment; H: black-grass
Outline: as §4

Italian ryegrass [31] = experiment: Test Example 4: weedkilling efficacy by foliar treatment; I: Italian ryegrass
Outline: as §4

common wind-grass [32] = experiment: Test Example 4: weedkilling efficacy by foliar treatment; J: common wind-grass
Outline: as §4

Indian mallow [33] = experiment: Test Example 4: weedkilling efficacy by foliar treatment; K: Indian mallow
Outline: as §4

redroot pigweed [34] = experiment: Test Example 4: weedkilling efficacy by foliar treatment; L: redroot pigweed
Outline: as §4

fig-leafed goosefoot [35] = experiment: Test Example 4: weedkilling efficacy by foliar treatment; M: fig-leafed goosefoot
Outline: as §4

chickweed [36] = experiment: Test Example 4: weedkilling efficacy by foliar treatment; N: chickweed
Outline: as §4

catchweed [37] = experiment: Test Example 4: weedkilling efficacy by foliar treatment; O: catchweed
Outline: as §4

birds-eye speedwell [38] = experiment: Test Example 4: weedkilling efficacy by foliar treatment; p: birds-eye speedwell
Outline: as §4

directly sown rice [39] = experiment: Test Example 4: foliar treatment, effect on crop; b: directly sown rice
Outline: as §4

corn [40] = experiment: Test Example 4: foliar treatment, effect on crop; c: corn
Outline: as §4

soybean [41] = experiment: Test Example 4: foliar treatment, effect on crop; d: soybean
Outline: as §4

wheat [42] = experiment: Test Example 4: foliar treatment, effect on crop; e: wheat
Outline: as §4

beet [43] = experiment: Test Example 4: foliar treatment, effect on crop; f: beet
Outline: as §4

rapeseed [44] = experiment: Test Example 4: foliar treatment, effect on crop; g: rapeseed
Outline: as §4

CCc1cc(F)nc(NC(=O)C(C)(C)N2COC(C)=C(c3ccccc3)C2=O)c1 [B-2-39]
A (barnyard grass) weedkilling efficacy grade (barnyard grass [1]): 5 (weed kill ratio 90% or more, (practically complete withering)) | B (bulrush) weedkilling efficacy grade (bulrush [2]): 5 (weed kill ratio 90% or more, (practically complete withering)) | C (oval-leafed pondweed) weedkilling efficacy grade (oval-leafed pondweed [3]): 5 (weed kill ratio 90% or more, (practically complete withering)) | a (transplanted rice) effect on crop grade (transplanted rice): 1 (weed kill ratio 5% or more, less than 20%) | A (barnyard grass) weedkilling efficacy grade (barnyard grass [4]): 5 (weed kill ratio 90% or more, (practically complete withering)) | B (bulrush) weedkilling efficacy grade (bulrush [5]): 5 (weed kill ratio 90% or more, (practically complete withering)) | C (oval-leafed pondweed) weedkilling efficacy grade (oval-leafed pondweed [6]): 5 (weed kill ratio 90% or more, (practically complete withering)) | D (crabgrass) weedkilling efficacy grade (crabgrass [7]): 5 (weed kill ratio 90% or more, (practically complete withering)) | E (green foxtail) weedkilling efficacy grade (green foxtail [8]): 5 (weed kill ratio 90% or more, (practically complete withering)) | F (barnyard grass) weedkilling efficacy grade (barnyard grass [9]): 5 (weed kill ratio 90% or more, (practically complete withering)) | G (wild oat) weedkilling efficacy grade (wild oat [10]): 5 (weed kill ratio 90% or more, (practically complete withering)) | H (black-grass) weedkilling efficacy grade (black-grass [11]): 5 (weed kill ratio 90% or more, (practically complete withering)) | I (Italian ryegrass) weedkilling efficacy grade (Italian ryegrass [12]): 5 (weed kill ratio 90% or more, (practically complete withering)) | J (common wind-grass) weedkilling efficacy grade (common wind-grass [13]): 5 (weed kill ratio 90% or more, (practically complete withering)) | K (Indian mallow) weedkilling efficacy grade (Indian mallow [14]): 2 (weed kill ratio 20% or more, less than 40%) | L (redroot pigweed) weedkilling efficacy grade (redroot pigweed [15]): 3 (weed kill ratio 40% or more, less than 70%) | M (fig-leafed goosefoot) weedkilling efficacy grade (fig-leafed goosefoot [16]): 4 (weed kill ratio 70% or more, less than 90%) | N (chickweed) weedkilling efficacy grade (chickweed [17]): 4 (weed kill ratio 70% or more, less than 90%) | O (catchweed) weedkilling efficacy grade (catchweed [18]): 4 (weed kill ratio 70% or more, less than 90%) | P (birds-eye speedwell) weedkilling efficacy grade (birds-eye speedwell [19]): 5 (weed kill ratio 90% or more, (practically complete withering)) | b (directly sown rice) effect on crop grade (directly sown rice [20]): 4 (weed kill ratio 70% or more, less than 90%) | c (corn) effect on crop grade (corn [21]): 0 (weed kill ratio 5% or less (practically no effect)) | d (soybean) effect on crop grade (soybean [22]): 0 (weed kill ratio 5% or less (practically no effect)) | e (wheat) effect on crop grade (wheat [23]): 0 (weed kill ratio 5% or less (practically no effect)) | f (beet) effect on crop grade (beet [24]): 3 (weed kill ratio 40% or more, less than 70%) | g (rapeseed) effect on crop grade (rapeseed [25]): 4 (weed kill ratio 70% or more, less than 90%) | D (crabgrass) weedkilling efficacy grade (crabgrass [26]): 5 (weed kill ratio 90% or more, (practically complete withering)) | E (green foxtail) weedkilling efficacy grade (green foxtail [27]): 5 (weed kill ratio 90% or more, (practically complete withering)) | F (barnyard grass) weedkilling efficacy grade (barnyard grass [28]): 5 (weed kill ratio 90% or more, (practically complete withering)) | G (wild oat) weedkilling efficacy grade (wild oat [29]): 4 (weed kill ratio 70% or more, less than 90%) | H (black-grass) weedkilling efficacy grade (black-grass [30]): 5 (weed kill ratio 90% or more, (practically complete withering)) | I (Italian ryegrass) weedkilling efficacy grade (Italian ryegrass [31]): 5 (weed kill ratio 90% or more, (practically complete withering)) | J (common wind-grass) weedkilling efficacy grade (common wind-grass [32]): 5 (weed kill ratio 90% or more, (practically complete withering)) | K (Indian mallow) weedkilling efficacy grade (Indian mallow [33]): 4 (weed kill ratio 70% or more, less than 90%) | L (redroot pigweed) weedkilling efficacy grade (redroot pigweed [34]): 3 (weed kill ratio 40% or more, less than 70%) | M (fig-leafed goosefoot) weedkilling efficacy grade (fig-leafed goosefoot [35]): 5 (weed kill ratio 90% or more, (practically complete withering)) | N (chickweed) weedkilling efficacy grade (chickweed [36]): 4 (weed kill ratio 70% or more, less than 90%) | O (catchweed) weedkilling efficacy grade (catchweed [37]): 4 (weed kill ratio 70% or more, less than 90%) | P (birds-eye speedwell) weedkilling efficacy grade (birds-eye speedwell [38]): 5 (weed kill ratio 90% or more, (practically complete withering)) | b (directly sown rice) effect on crop grade (directly sown rice [39]): 4 (weed kill ratio 70% or more, less than 90%) | c (corn) effect on crop grade (corn [40]): 4 (weed kill ratio 70% or more, less than 90%) | d (soybean) effect on crop grade (soybean [41]): 4 (weed kill ratio 70% or more, less than 90%) | e (wheat) effect on crop grade (wheat [42]): 0 (weed kill ratio 5% or less (practically no effect)) | f (beet) effect on crop grade (beet [43]): 4 (weed kill ratio 70% or more, less than 90%) | g (rapeseed) effect on crop grade (rapeseed [44]): 4 (weed kill ratio 70% or more, less than 90%)

— patent publication US9738634B2, “Heterocyclic amide compound and herbicide” (SYNGENTA PARTICIPATIONS AG, priority 2013, dated 2017)
